# Experimental data: patent US11446287B2, “Compounds and methods for EP300 or CBP modulation and indications therefor” (Opna Immuno-Oncology SA, priority 2019, dated 2022)
# Biological target: T1, Recombinant human EP300 containing the bromodomain (EP300-BD (1040-1161)) (Homo sapiens, UniProt Q09472)
# T1 construct: Recombinant human EP300 bromodomain (EP300-BD (1040-1161)); made in house; host or cells: E. coli BL21-CodonPlus (DE3), modified pET vector
# T1 sequence (Q09472 1040-1161): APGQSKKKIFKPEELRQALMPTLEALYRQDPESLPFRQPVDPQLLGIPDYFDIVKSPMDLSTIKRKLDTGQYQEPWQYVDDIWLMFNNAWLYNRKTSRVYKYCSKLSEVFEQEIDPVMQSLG
# Assay: EP300 Alphascreen binding assay
# How it was run: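 Displacement of a biotinylated acetyl-K56 histone H3 peptide from the N-His bromodomain construct (1040-1161) measured by AlphaScreen proximity, beads at 7.5 μg/ml final, read 60 min after addition. Protein, peptide and compound first incubated 1 h at room temperature, pH 7.5 HEPES buffer; IC50 by four-parameter logistic fit.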
row,SMILES,IC50 [µM]
1,"Cc1noc(C)c1-c1cnc2c(c1)c(-c1ccc(C(=O)O)cc1OC(F)(F)F)cn2-c1ccc(F)cc1F [P-0232, 4-(1-(2,4-difluorophenyl)-5-(3,5-dimethylisoxazol-4-yl)-1H-pyrrolo[2,3-b]pyridin-3-yl)-3-(trifluoromethoxy)benzoic acid]",0.0001 to 1
2,"Cc1noc(C)c1-c1cnc2c(c1)c(-c1ccc(C(=O)O)cc1OC(F)(F)F)cn2-c1ncccc1C#CC1CC1 [P-0216, 4-(1-(3-(cyclopropylethynyl)pyridin-2-yl)-5-(3,5-dimethylisoxazol-4-yl)-1H-pyrrolo[2,3-b]pyridin-3-yl)-3-(trifluoromethoxy)benzoic acid]",0.0001 to 1
3,"Cc1noc(C)c1-c1cnc2c(c1)c(-c1ccc(C(=O)O)cc1OC(F)(F)F)c(C)n2-c1ccccn1 [P-0228, 4-(5-(3,5-dimethylisoxazol-4-yl)-2-methyl-1-(pyridin-2-yl)-1H-pyrrolo[2,3-b]pyridin-3-yl)-3-(trifluoromethoxy)benzoic acid]",0.0001 to 1
4,"Cc1noc(C)c1-c1cnc2c(c1)c(-c1ccc(C(=O)O)cc1OC(F)(F)F)cn2-c1ncccc1F [P-0182, 4-(5-(3,5-dimethylisoxazol-4-yl)-1-(3-fluoropyridin-2-yl)-1H-pyrrolo[2,3-b]pyridin-3-yl)-3-(trifluoromethoxy)benzoic acid]",0.0001 to 1
5,"Cc1noc(C)c1-c1cnc2c(-c3ccc(F)cc3F)cn(-c3ccc(C(=O)O)cc3OC(F)(F)F)c2c1 [P-0229, 4-(3-(2,4-difluorophenyl)-6-(3,5-dimethylisoxazol-4-yl)-1H-pyrrolo[3,2-b]pyridin-1-yl)-3-(trifluoromethoxy)benzoic acid]",0.0001 to 1
6,"Cc1noc(C)c1-c1cnc2c(c1)c(-c1cccc(C(=O)O)c1)cn2C(c1ccccn1)C1CCCC1 (stereo not drawn) [P-0015, 3-(1-(cyclopentyl(pyridin-2-yl)methyl)-5-(3,5-dimethylisoxazol-4-yl)-1H-pyrrolo[2,3-b]pyridin-3-yl)benzoic acid]",0.0001 to 1
7,"CCOc1cc(C(=O)O)cc(OCC)c1-n1cc(-c2ccc(C3CC3)nc2)c2ncc(-c3c(C)noc3C)cc21 [P-0192, 4-(3-(6-cyclopropylpyridin-3-yl)-6-(3,5-dimethylisoxazol-4-yl)-1H-pyrrolo[3,2-b]pyridin-1-yl)-3,5-diethoxybenzoic acid]",0.0001 to 1
8,"Cc1noc(C)c1-c1cnc2c(c1)c(-c1ccc(C(=O)O)cc1OC(F)(F)F)cn2-c1cccnc1 [P-0175, 4-(5-(3,5-dimethylisoxazol-4-yl)-1-(pyridin-3-yl)-1H-pyrrolo[2,3-b]pyridin-3-yl)-3-(trifluoromethoxy)benzoic acid]",0.0001 to 1
9,"Cc1noc(C)c1-c1cnc2c(c1)c(-c1ccc(C(=O)O)cc1OC(F)(F)F)cn2C1CCOCC1 [P-0226, 4-(5-(3,5-dimethylisoxazol-4-yl)-1-(tetrahydro-2H-pyran-4-yl)-1H-pyrrolo[2,3-b]pyridin-3-yl)-3-(trifluoromethoxy)benzoic acid]",0.0001 to 1
10,"Cc1noc(C)c1-c1cnc2c(c1)c(-c1c(Cl)cc(C(=O)O)cc1Cl)cn2[C@@H](C)c1ccccn1 [P-0197, (S)-3,5-dichloro-4-(5-(3,5-dimethylisoxazol-4-yl)-1-(1-(pyridin-2-yl)ethyl)-1H-pyrrolo[2,3-b]pyridin-3-yl)benzoic acid]",0.0001 to 1
11,"CCOc1cccc(Cl)c1-n1cc(-c2ccccc2)c2ncc(-c3c(C)noc3C)cc21 [P-0224, 4-(1-(2-chloro-6-ethoxyphenyl)-3-phenyl-1H-pyrrolo[3,2-b]pyridin-6-yl)-3,5-dimethylisoxazole]",1 to 8
12,"Cc1noc(C)c1-c1cnc2c(c1)c(-c1ccc(C(=O)O)cc1OC(F)(F)F)cn2-c1cnccc1C#N [P-0204, 4-(1-(4-cyanopyridin-3-yl)-5-(3,5-dimethylisoxazol-4-yl)-1H-pyrrolo[2,3-b]pyridin-3-yl)-3-(trifluoromethoxy)benzoic acid]",0.0001 to 1
13,"Cc1noc(C)c1-c1cnc2c(c1)c(-c1ccc(C(=O)O)cc1OCC(F)(F)F)cn2C(C1CC1)C1CC1 [P-0214, 4-(1-(dicyclopropylmethyl)-5-(3,5-dimethylisoxazol-4-yl)-1H-pyrrolo[2,3-b]pyridin-3-yl)-3-(2,2,2-trifluoroethoxy)benzoic acid]",0.0001 to 1
14,"CCOc1cccc(C#N)c1-n1cc(-c2ccccc2)c2ncc(-c3c(C)noc3C)cc21 [P-0206, 2-(6-(3,5-dimethylisoxazol-4-yl)-3-phenyl-1H-pyrrolo[3,2-b]pyridin-1-yl)-3-ethoxybenzonitrile]",0.0001 to 1
15,"COC(=O)c1cc(OC)c(-n2cc(-c3ccccc3)c3ncc(-c4c(C)noc4C)cc32)c(OC)c1 [P-0219, methyl 4-(6-(3,5-dimethylisoxazol-4-yl)-3-phenyl-1H-pyrrolo[3,2-b]pyridin-1-yl)-3,5-dimethoxybenzoate]",0.0001 to 1
